Structures are written as SMILES.

Common to all, as to format: cell-based
Test [1] relates to lung carcinoma cell. Description: Cell viability, lung carcinoma cells (panel statement). Conditions: summary of Table 13; read-out: IC50, lung carcinoma cell growth. The protocol:
(§1) Antitumor activity of the compounds and doxorubicin as a positive control was assessed by using the CellTiter-Blue Cell Viability Assay (Promega, #G8082) or CellTiter-Glow® Luminescent Cell Viability assay (Promega #G7572) according to the manufacturer's instructions. The compounds were tested at 5 or 6 concentrations in half-log increments (highest concentration 30 μM or 100 μM) in duplicate or triplicate well conditions.
(§2) Tumor cells were grown at 37° C. in a humidified atmosphere with 5% CO2 in RPMI 1640 or DMEM medium, supplemented with 10% (v/v) fetal calf serum and 50 μg/ml gentamicin for up to 20 passages, and were passaged once or twice weekly. Cells were harvested using TrypLE or PBS buffer containing 1 mM EDTA, and the percentage of viable cells was determined using a CASY Model TI cell counter (OMNI Life Science). Cells were harvested from exponential phase cultures, counted and plated in 96 well flat-bottom microtiter plates at a cell density depending on the cell line's growth rate (4,000-20,000 cells/well depending on the cell line's growth rate, up to 60,000 for hematological cancer cell lines) in RPMI 1640 or DMEM medium supplemented with 10% (v/v) fetal calf serum and 50 μg/ml gentamicin (140 μl/well). […] Viability of cells was quantified by the CellTiter-Blue® cell viability assay (Promega G8081) or CellTiter-Glow® Luminescent Cell Viability assay (Promega #G7572). […]

Test [2] has as its system A549. The test is described as follows: Cell viability assay, A549. The conditions noted are these: Homo sapiens; lung carcinoma cell line A549. How it is done: as §1, §2
In test [3] the test system is pancreatic PDX. The test is described as follows: Cell viability, pancreatic PDX (panel statement). Conditions: Table 19; read-out: IC50, pancreatic PDX growth. How it is done:
(§3) PDX-derived cell cultures were obtained from tumors explanted from mice and isolated by mechanical and enzymatic dissociation. […] Cells were harvested and seeded in 96-wells plates at a density of 1.25 to 5×10^3 cells/well for cytotoxicity assays. Cells were incubated 48 h at 37° C. prior to addition of test molecules and vehicle (DMSO, 0.1%) at desired final concentrations. Cell viability was assessed before drugs' addition (To) and 5 days after test molecules addition by measuring ATP cell content using CellTiter-Glo® Luminescent Cell Viability Assay (Promega) according to the manufacturer's instructions. Luciferase activity was measured on a luminometer (PerkinElmer® EnVision™). Each concentration of compounds was tested in triplicate.
(§4) Viability was calculated as a percentage of ATP value compared to vehicle treated controls.
(§5) For PDX primary cell cultures, the tumour tissue was washed with PBS containing antibiotic-antimycotic and non-tumour tissue and necrotic tumour tissues were separated. The tumour tissue was transferred to a new dish and cut into 1˜2 mm^3 fragments, resuspended in RPMI-1640 medium and centrifuged at 1,200 rpm for 6 min at room temperature. The pelleted material was resuspended with 15 mL of Tumour Cell Digestion Solution and incubated at 37° C. for 1 hour with agitation. […]

Test [4] relates to stomach PDX. The test is described as follows: Cell viability, stomach PDX (panel statement). Conditions: text summary of Table 22; read-out: IC50, stomach PDX growth. How it is done: as §3, §4, §5
Test [5] has as its system CHP-134. Description: Cell viability assay, CHP-134. The conditions noted are these: Homo sapiens; brain carcinoma cell line CHP-134. The protocol: as §1, §2
Test [6] deals with brain cancer cell. Description: Cell viability, brain cancer cells (panel statement). Conditions: text summary of Tables 3A-3C; read-out: IC50, brain cancer cell growth. How it is done: as §1, §2

By IC50 is commonly meant the concentration that inhibits the measured activity by half. For `COc1c(O)ccc2c(=O)c(O)c(-c3ccc(CCCC[P+](c4ccccc4)(c4ccccc4)c4ccccc4)cc3)oc12` [SND190, (4-(4-(3,7-Dihydroxy-8-methoxy-4-oxo-4H1-chromen-2-yl)phenyl)butyl)triphenylphosphonium bromide], the IC50 in test [1] is under 20 µM; in test [2] it was 13.8 µM; in test [3], under 10 µM; in test [4], under 20 µM; in test [5] it was 1.1 µM; in test [6], under 20 µM.

The values are drawn from patent publication US20240124503A1, “HETEROAROMATIC PHOSPHONIUM SALTS AND THEIR USE TREATING CANCER” (FLORATEK PHARMA S.A., priority 2021, published 2024).
